# Assay results from US10729659B2, “Nanogel-mediated drug delivery” (The Cleveland Clinic Foundation, priority 2012, dated 2020).
# System: MCF-7/Adr cells
# Assay: Microarray gene expression analysis
# Assay type: cell-based, human
# Conditions: decitabine vs untreated MCF-7/Adr
# Description: Microarray analysis was performed using the standard protocol provided by IlluminaCorporation (San Diego, Calif.). […] 20 μL of nuclease free water containing total RNA at the concentration of 100 ng/μL was stored at −80° C. Approximately […] of total RNA was subjected to gene expression array study using Illuminahuman 6v2 chip. The array-hybridization and scanning of array images were performed at the Cleveland Clinic Genomics Core. The microarray scanned image and intensity files were imported into Illumina Bead Studio Analysis software version 3.2.6 (Illumina Inc.). Error models were applied and ratios were built for each treatment array versus its respective vehicle control. For qPCR analysis, RNA isolated from treated and untreated cells were converted into cDNA using Mo-MLV reverse transcriptase (Promega Inc., USA) according to manufacturers' instructions. Taqman expression primers (Applied Biosystems Inc., USA) and ABI PRISM Sequence Detection Instrument 7700 (Applied Biosystems Inc., USA) were used for real-time reverse transcription-PCR (RT-PCR). Fold change in target genes was calculated about the human glyceraldehyde 3-phosphate dehydrogenase (GAPDH).
structure (smiles),measurement,setting,value
"Nc1ncn([C@H]2C[C@H](O)[C@@H](CO)O2)c(=O)n1 [DAC, 5-aza-2′-deoxycytidine]",Fold Change 48 h,"gene CDKN1A (p21, Cip1)",3.6 fold
same,Fold Change 48 h,gene CST6,52.8 fold
same,Fold Change 48 h,gene DPEP3,−87.8 fold
same,Fold Change 48 h,gene DPPA2,−11.2 fold
same,Fold Change 48 h,gene GAGE2,1754.4 fold
same,Fold Change 48 h,gene GAGE5,1358.9 fold
same,Fold Change 48 h,gene GAGE6,813.8 fold
same,Fold Change 48 h,gene GAGE7B,907.8 fold
same,Fold Change 48 h,gene GAGE8,411.0 fold
same,Fold Change 48 h,gene IL23A (p19),3.02 fold
same,Fold Change 48 h,gene MAGEA4,4.7 fold
same,Fold Change 48 h,gene MMP9,−215.1 fold
same,Fold Change 48 h,gene PAGE 4,11.6 fold
same,Fold Change 48 h,gene PAGE5,25.4 fold
same,Fold Change 48 h,gene PAK3,2.7 fold
same,Fold Change 48 h,gene PNMA5,−19.8 fold
same,Fold Change 48 h,gene PYCARD,23.6 fold
same,Fold Change 48 h,gene RASD1,35.6 fold
same,Fold Change 48 h,gene SOCSI,28.2 fold
same,Fold Change 48 h,gene SOX15,10.2 fold
same,Fold Change 48 h,gene STK31,1663.3 fold
same,Fold Change 48 h,gene TFF2,−16.8 fold
same,Fold Change 48 h,gene THY1,103.1 fold
same,Fold Change 48 h,gene TMEM101,33.7 fold
same,Fold Change 48 h,gene ZFP42,−22.5 fold
